# Patent publication US10556888B2, “Pyrazole compounds or salts thereof, preparation methods therefor, herbicidal compositions and use thereof” (QINGDAO KINGAGROOT CHEMICAL COMPOUNDS CO., LTD, priority 2015, dated 2020)
# Tests used:
# Type in all cases: in vivo
# Setaria viridis = experiment: Control experiment, test in post-emergence stage; parameters: key: Level 10: completely dead; Level 9: above 90% growth inhibition rate; Level 8: above 80% growth inhibition rate; Level 7: above 70% growth inhibition rate; Level 6: above 60% growth inhibition rate; Level 5: above 50% growth inhibition rate; Level 4: above 30% growth inhibition rate; Level 3: above 20% growth inhibition rate; Level 2: above 10% growth inhibition rate; Level 1: above 1-10% growth inhibition rate; Level 0: no effect; details: 5-6 leaf stage, 15 g/ha, observe time 25 day
# Experimental: (§1) Test in post-emergence stage: seeds of monocotyledonous weeds and corn were put into a plastic pot loaded with soil, covered with 0.5-2 cm soil, and allowed to grow in good greenhouse environment. The test plants were treated at 5-6 leaf stage 4 weeks after sowing. The test compounds of the present invention were dissolved with acetone respectively, then added with tween 80, diluted by a certain amount of water to reach a certain concentration. The solution was sprayed to the plants by a spray tower. The test application rate was 15 g/ha and the observe time was 25 day.
# Digitaria sanguinalis = experiment: Control experiment, test in post-emergence stage; parameters: key: Level 10: completely dead; Level 9: above 90% growth inhibition rate; Level 8: above 80% growth inhibition rate; Level 7: above 70% growth inhibition rate; Level 6: above 60% growth inhibition rate; Level 5: above 50% growth inhibition rate; Level 4: above 30% growth inhibition rate; Level 3: above 20% growth inhibition rate; Level 2: above 10% growth inhibition rate; Level 1: above 1-10% growth inhibition rate; Level 0: no effect; details: 5-6 leaf stage, 15 g/ha, observe time 25 day
# Experimental: as §1
# Echinochloa crus-galli [1] = experiment: Control experiment, test in post-emergence stage; parameters: key: Level 10: completely dead; Level 9: above 90% growth inhibition rate; Level 8: above 80% growth inhibition rate; Level 7: above 70% growth inhibition rate; Level 6: above 60% growth inhibition rate; Level 5: above 50% growth inhibition rate; Level 4: above 30% growth inhibition rate; Level 3: above 20% growth inhibition rate; Level 2: above 10% growth inhibition rate; Level 1: above 1-10% growth inhibition rate; Level 0: no effect; details: 5-6 leaf stage, 15 g/ha, observe time 25 day
# Experimental: as §1
# Corn = experiment: Control experiment, test in post-emergence stage, crop safety; parameters: key: Level 10: completely dead; Level 9: above 90% growth inhibition rate; Level 8: above 80% growth inhibition rate; Level 7: above 70% growth inhibition rate; Level 6: above 60% growth inhibition rate; Level 5: above 50% growth inhibition rate; Level 4: above 30% growth inhibition rate; Level 3: above 20% growth inhibition rate; Level 2: above 10% growth inhibition rate; Level 1: above 1-10% growth inhibition rate; Level 0: no effect; details: 5-6 leaf stage, 15 g/ha, observe time 25 day
# Experimental: as §1
# [2] = tested on: main crop (wheat, corn, rice, soybean, cotton, oilseed, millet and sorghum); experiment: Post-emergence test experiment, main crops (Table 2); parameters: key: Level 10: completely dead; Level 9: above 90% growth inhibition rate; Level 8: above 80% growth inhibition rate; Level 7: above 70% growth inhibition rate; Level 6: above 60% growth inhibition rate; Level 5: above 50% growth inhibition rate; Level 4: above 30% growth inhibition rate; Level 3: above 20% growth inhibition rate; Level 2: above 10% growth inhibition rate; Level 1: above 1-10% growth inhibition rate; Level 0: no effect; details: 3 weeks after spraying, greenhouse
# Outline: (§2)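 Weed and crop seeds (wheat, corn, rice, soybean, cotton, oilseed, millet, sorghum) grown in soil in greenhouse; sprayed at 2-3 leaf stage, 2-3 weeks after sowing, with compound in acetone/Tween 80/water. Effects assessed after 3 weeks further greenhouse culture.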
# [3] = tested on: Monocotyledonous and dicotyledonous weed; experiment: Post-emergence test experiment, weed control effect (Table 2); parameters: key to weed control effect, Setaria viridis (level) / weed control effect, Rorippa indica (level) / weed control effect, Abutilon theophrasti (level) / weed control effect, Echinochloa crus-galli (level) / weed control effect, Digitaria sanguinalis (level): Level 10: completely dead; Level 9: above 90% growth inhibition rate; Level 8: above 80% growth inhibition rate; Level 7: above 70% growth inhibition rate; Level 6: above 60% growth inhibition rate; Level 5: above 50% growth inhibition rate; Level 4: above 30% growth inhibition rate; Level 3: above 20% growth inhibition rate; Level 2: above 10% growth inhibition rate; Level 1: above 1-10% growth inhibition rate; Level 0: no effect; details: 3 weeks after spraying, greenhouse
# Outline: as §2
# Echinochloa crus-galli [4] = experiment: Weed control effect evaluation in transplanted rice field; parameters: key: Level 10: completely dead; Level 9: above 90% growth inhibition rate; Level 8: above 80% growth inhibition rate; Level 7: above 70% growth inhibition rate; Level 6: above 60% growth inhibition rate; Level 5: above 50% growth inhibition rate; Level 4: above 30% growth inhibition rate; Level 3: above 20% growth inhibition rate; Level 2: above 10% growth inhibition rate; Level 1: above 1-10% growth inhibition rate; Level 0: no effect; details: transplanted rice field pot test, application rate 60 g/ha, 14 days after treatment
# Experimental: (§3) Rice field soil was loaded into a 1/1,000,000 ha pot. The seeds of Echinochloa, Scirpus juncoides, Bidens tripartite and Sagittaria trifolia were sowed and gently covered with soil, then left to stand still in greenhouse in the state of 0.5-1 cm of water storage. The tuber of Sagittaria trifolia was planted in the next day or 2 days later. It was kept at 3-4 cm of water storage thereafter. The weeds were treated by dripping the WP or SC water diluents prepared according to the common preparation method of the compounds of the present invention with pipette homogeneously to achieve specified effective amount when Echinochloa, Scirpus juncoides and Bidens tripartite reached 0.5 leaf stage and Sagittaria trifolia reached the time point of primary leaf stage.
# (§4) The fertility condition of Echinochloa, Scirpus juncoides, Bidens tripartite and Sagittaria trifolia 14 days after the treatment of the compound of the invention and the fertility condition of rice 21 days after the treatment of the compound of the invention respectively with the naked eye.
# (§5) The seeds of Echinochloa crus-galli, Scirpus juncoides and Monochoria vaginalis were collected from Heilongjing and Jiangsu Province of China.
# Monochoria vaginalis = experiment: as above; parameters: key: Level 10: completely dead; Level 9: above 90% growth inhibition rate; Level 8: above 80% growth inhibition rate; Level 7: above 70% growth inhibition rate; Level 6: above 60% growth inhibition rate; Level 5: above 50% growth inhibition rate; Level 4: above 30% growth inhibition rate; Level 3: above 20% growth inhibition rate; Level 2: above 10% growth inhibition rate; Level 1: above 1-10% growth inhibition rate; Level 0: no effect; details: transplanted rice field pot test, application rate 60 g/ha, 14 days after treatment
# Experimental: as §3, §4, §5
# Scirpus juncoides = experiment: as above; parameters: key: Level 10: completely dead; Level 9: above 90% growth inhibition rate; Level 8: above 80% growth inhibition rate; Level 7: above 70% growth inhibition rate; Level 6: above 60% growth inhibition rate; Level 5: above 50% growth inhibition rate; Level 4: above 30% growth inhibition rate; Level 3: above 20% growth inhibition rate; Level 2: above 10% growth inhibition rate; Level 1: above 1-10% growth inhibition rate; Level 0: no effect; details: transplanted rice field pot test, application rate 60 g/ha, 14 days after treatment
# Experimental: as §3, §4, §5
# Rice = experiment: Transplanted rice safety evaluation; parameters: key: Level 10: completely dead; Level 9: above 90% growth inhibition rate; Level 8: above 80% growth inhibition rate; Level 7: above 70% growth inhibition rate; Level 6: above 60% growth inhibition rate; Level 5: above 50% growth inhibition rate; Level 4: above 30% growth inhibition rate; Level 3: above 20% growth inhibition rate; Level 2: above 10% growth inhibition rate; Level 1: above 1-10% growth inhibition rate; Level 0: no effect; details: transplanted 3 leaf stage japonica rice, application rate 60 g/ha, 21 days after treatment
# Experimental: In addition, the rice field soil that loaded into the 1/1,000,000 ha pot was leveled to keep water storage at 3-4 cm depth. The 3 leaf stage rice (japonica rice) was transplanted at 3 cm of transplanting depth the next day. The compound of the present invention was treated by the same way after 5 days of transplantation. The fertility condition of Echinochloa, Scirpus juncoides, Bidens tripartite and Sagittaria trifolia 14 days after the treatment of the compound of the invention and the fertility condition of rice 21 days after the treatment of the compound of the invention respectively with the naked eye.
SMILES,Setaria viridis (activity level) (Setaria viridis),Digitaria sanguinalis (activity level) (Digitaria sanguinalis),Echinochloa crus-galli (activity level) (Echinochloa crus-galli [1]),"Corn (safety, activity level) (Corn)","effect on crop, corn (level) ([2]; 30 g/ha)","effect on crop, rice (level) ([2]; 30 g/ha)","effect on crop, wheat (level) ([2]; 30 g/ha)","weed control effect, Abutilon theophrasti (level) ([3]; 30 g/ha)","weed control effect, Bidens pilosa (level) ([3]; 30 g/ha)","weed control effect, Digitaria sanguinalis (level) ([3]; 30 g/ha)","weed control effect, Echinochloa crus-galli (level) ([3]; 30 g/ha)","weed control effect, Rorippa indica (level) ([3]; 30 g/ha)","weed control effect, Setaria viridis (level) ([3]; 30 g/ha)","Weed control effect, Echinochloa crus-galli (activity level) (Echinochloa crus-galli [4])","Weed control effect, Monochoria vaginalis (activity level) (Monochoria vaginalis)","Weed control effect, Scirpus juncoides (activity level) (Scirpus juncoides)","Rice (safety, activity level) (Rice)",other results
"COCc1c(S(C)(=O)=O)ccc(C(=O)c2c(C)nn(C)c2O)c1Cl [A, reference compound]",7 (Level 7: above 70% growth inhibition rate),6 (Level 6: above 60% growth inhibition rate),7 (Level 7: above 70% growth inhibition rate),1 (Level 1: above 1-10% growth inhibition rate),,,,,,,,,,,,,,
"Cc1nn(C)c(O)c1C(=O)c1ccc(S(C)(=O)=O)c(COCC(F)(F)F)c1Cl [B, reference compound]",7 (Level 7: above 70% growth inhibition rate),5 (Level 5: above 50% growth inhibition rate),6 (Level 6: above 60% growth inhibition rate),0,,,,,,,,,,,,,,
COCc1c(S(C)(=O)=O)ccc(C(=O)c2c(C)nn(C)c2OC(=O)c2cn(C)nc2C)c1Cl [Compound 26],10,10,10,0,1 (Level 1: above 1-10% growth inhibition rate),5 (Level 5: above 50% growth inhibition rate),0,7 (Level 7: above 70% growth inhibition rate),8 (Level 8: above 80% growth inhibition rate),10,10,8 (Level 8: above 80% growth inhibition rate),10,,,,,
CCn1nc(C2CC2)c(C(=O)c2ccc(S(C)(=O)=O)c(COCC(F)F)c2Cl)c1OC(=O)c1cn(C)nc1C [Compound 90],,,,,1 (Level 1: above 1-10% growth inhibition rate),3 (Level 3: above 20% growth inhibition rate),0,7 (Level 7: above 70% growth inhibition rate),7 (Level 7: above 70% growth inhibition rate),10,10,10,10,10,10,10,0,
C#CCOCc1c(S(C)(=O)=O)ccc(C(=O)c2cnn(C(C)C)c2OC(=O)c2cn(C)nc2C)c1Cl [Compound 100],,,,,1 (Level 1: above 1-10% growth inhibition rate),5 (Level 5: above 50% growth inhibition rate),0,7 (Level 7: above 70% growth inhibition rate),7 (Level 7: above 70% growth inhibition rate),7 (Level 7: above 70% growth inhibition rate),10,10,10,10,8 (Level 8: above 80% growth inhibition rate),10,0,
C#CCOCc1c(S(C)(=O)=O)ccc(C(=O)c2c(CC)nn(CC)c2OC(=O)c2c(Cl)c(CC)nn2C)c1Cl [Compound 107],,,,,,,,,,,,,,9 (Level 9: above 90% growth inhibition rate),10,10,10,"effect on crop, corn (level) ([2]; 60 g/ha): 0; effect on crop, rice (level) ([2]; 60 g/ha): 7 (Level 7: above 70% growth inhibition rate); effect on crop, wheat (level) ([2]; 60 g/ha): 0; weed control effect, Abutilon theophrasti (level) ([3]; 60 g/ha): 10; weed control effect, Bidens pilosa (level) ([3]; 60 g/ha): 8 (Level 8: above 80% growth inhibition rate); weed control effect, Digitaria sanguinalis (level) ([3]; 60 g/ha): 8 (Level 8: above 80% growth inhibition rate); weed control effect, Echinochloa crus-galli (level) ([3]; 60 g/ha): 10; weed control effect, Rorippa indica (level) ([3]; 60 g/ha): 10; weed control effect, Setaria viridis (level) ([3]; 60 g/ha): 10"
